PMC7076388 (Pharmaceutics, 2020)
“Also recorded” adds a separate entry of the source. Where two headings read alike, the source gives them in different places.

Assays:
[1] = system: LPS-induced •NO production in RAW 264.7 cells; conditions: preliminary study; cited from earlier work
[2] = target: T1, LOX from glycine max (soybean) (Glycine max, UniProt P08170); set-up: method as in PMID 30987203; conditions: 100 µM; cited from earlier work
T1 construct: purchased Sigma-Aldrich
T1 sequence (P08170 1-839): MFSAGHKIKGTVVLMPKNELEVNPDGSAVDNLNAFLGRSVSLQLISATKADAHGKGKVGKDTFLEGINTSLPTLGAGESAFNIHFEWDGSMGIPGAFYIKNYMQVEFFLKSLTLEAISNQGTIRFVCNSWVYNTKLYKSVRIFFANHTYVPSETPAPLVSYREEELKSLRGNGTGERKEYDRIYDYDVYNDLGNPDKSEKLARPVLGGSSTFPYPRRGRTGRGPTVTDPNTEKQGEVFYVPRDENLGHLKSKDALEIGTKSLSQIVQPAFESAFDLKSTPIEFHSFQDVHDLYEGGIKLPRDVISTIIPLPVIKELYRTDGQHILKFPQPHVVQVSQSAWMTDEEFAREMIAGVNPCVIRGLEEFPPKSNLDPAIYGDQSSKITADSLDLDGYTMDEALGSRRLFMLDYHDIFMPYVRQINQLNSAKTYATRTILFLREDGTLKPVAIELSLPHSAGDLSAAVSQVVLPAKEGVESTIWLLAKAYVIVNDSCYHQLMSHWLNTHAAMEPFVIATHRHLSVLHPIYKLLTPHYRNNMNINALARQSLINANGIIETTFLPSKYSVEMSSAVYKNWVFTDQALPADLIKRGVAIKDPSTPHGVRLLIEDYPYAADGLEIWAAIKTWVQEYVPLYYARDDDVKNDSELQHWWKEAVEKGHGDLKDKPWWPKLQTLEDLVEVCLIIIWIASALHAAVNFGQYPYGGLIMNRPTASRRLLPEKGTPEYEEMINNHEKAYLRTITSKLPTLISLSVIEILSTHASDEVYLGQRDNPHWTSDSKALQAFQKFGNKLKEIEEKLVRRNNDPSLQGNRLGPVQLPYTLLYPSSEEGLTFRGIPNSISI

[3] = target: T1, LOX from glycine max (soybean); test: Lipoxygenase glycine max (soybean) assay; format: biochemical; conditions: for IC50: dose-response assay, read-out: IC50 for LOX inhibition; for LOX inhibition at single concentration: 100 µM
Experimental: The inhibitory effect on LOX was assessed in 96-well plates, using a modified version of a previously reported procedure from Pereira et al.. […] After 5 min pre-incubation at room temperature, the reaction was started by addition of linoleic acid substrate (20 µL of a 4.18 mM solution in ethanol). The reaction was monitored at 234 nm using a multiplate reader (Multiskan Thermo Fisher Scientific Oy, Vantaa, Finland), for 3 min.

[4] = system: AGS cells; test: MTT cell viability, AGS cells; format: cell-based; conditions: 24 h; for toxicity towards AGS cells: 100 µM
Experimental: (§1) Adenocarcinoma gastric cells (AGS; Sigma-Aldrich, St. Louis, MO, USA), murine-macrophage cell line (RAW 264.7; American Type Culture Collection, LGC Standards S.L.U., Barcelona, Spain), and human foetal lung fibroblasts (MRC-5; ECACC, Porton Down Salisbury, UK) were cultured as a monolayer at 37 °C in a humidified incubator with 5% carbon dioxide. AGS and RAW 264.7 cells were grown in DMEM, supplemented with 1% streptomycin/penicillin and 10% FBS (Gibco®). MRC-5 cells were grown in MEM, supplemented with 1% streptomycin/penicillin and 10% FBS.
(§2) Cell viability was evaluated by the MTT reduction assay. Cells were cultured in 96-well plates (15,000 cells/well for AGS, 25,000 cells/well for RAW and 20,000 cells/well for MRC-5) and allowed to attach for 24 h. After incubation with compounds for 24 h, MTT (0.5 mg/mL final concentration) was added to each well and the plate was incubated for 75 min at 37 °C. Formazan crystals were dissolved by the addition of a DMSO: isopropanol mixture (3:1) and then quantified spectrophotometrically at 570 nm using a microplate reader (Multiskan Thermo Fisher Scientific Oy, Vantaa, Finland).

[5] = system: RAW 264.7 cells; set-up: method as in PMID 30987203; conditions: up to 100 µM, 24 h, MTT; cited from earlier work
[6] = target: T2, COX-2 (Homo sapiens, UniProt P35354); set-up: method as in PMID 30987203; conditions: 25 µM; low selectivity towards COX-2; cited from earlier work
T2 construct: purchased Cayman Chemical
T2 sequence (P35354 18-604): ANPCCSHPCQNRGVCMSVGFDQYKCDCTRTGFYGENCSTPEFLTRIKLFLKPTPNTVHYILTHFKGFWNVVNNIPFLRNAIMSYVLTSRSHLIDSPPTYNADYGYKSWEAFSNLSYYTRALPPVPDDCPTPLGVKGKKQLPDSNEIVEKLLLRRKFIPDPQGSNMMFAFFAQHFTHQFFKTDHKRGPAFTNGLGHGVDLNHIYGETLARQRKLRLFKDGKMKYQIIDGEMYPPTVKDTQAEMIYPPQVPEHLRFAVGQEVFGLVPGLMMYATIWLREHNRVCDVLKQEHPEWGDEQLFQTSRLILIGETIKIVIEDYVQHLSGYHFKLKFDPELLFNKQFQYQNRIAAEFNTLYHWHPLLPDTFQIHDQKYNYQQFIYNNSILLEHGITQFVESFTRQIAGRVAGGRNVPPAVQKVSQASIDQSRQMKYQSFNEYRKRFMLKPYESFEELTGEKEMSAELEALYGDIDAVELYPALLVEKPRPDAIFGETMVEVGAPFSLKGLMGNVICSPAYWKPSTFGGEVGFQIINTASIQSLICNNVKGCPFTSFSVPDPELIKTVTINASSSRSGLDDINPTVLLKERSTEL

[7] = target: T3, COX-1 (Ovis aries, UniProt P05979); set-up: method as in PMID 30987203; conditions: 25 µM; cited from earlier work
T3 construct: purchased Cayman Chemical
T3 sequence (P05979 25-600): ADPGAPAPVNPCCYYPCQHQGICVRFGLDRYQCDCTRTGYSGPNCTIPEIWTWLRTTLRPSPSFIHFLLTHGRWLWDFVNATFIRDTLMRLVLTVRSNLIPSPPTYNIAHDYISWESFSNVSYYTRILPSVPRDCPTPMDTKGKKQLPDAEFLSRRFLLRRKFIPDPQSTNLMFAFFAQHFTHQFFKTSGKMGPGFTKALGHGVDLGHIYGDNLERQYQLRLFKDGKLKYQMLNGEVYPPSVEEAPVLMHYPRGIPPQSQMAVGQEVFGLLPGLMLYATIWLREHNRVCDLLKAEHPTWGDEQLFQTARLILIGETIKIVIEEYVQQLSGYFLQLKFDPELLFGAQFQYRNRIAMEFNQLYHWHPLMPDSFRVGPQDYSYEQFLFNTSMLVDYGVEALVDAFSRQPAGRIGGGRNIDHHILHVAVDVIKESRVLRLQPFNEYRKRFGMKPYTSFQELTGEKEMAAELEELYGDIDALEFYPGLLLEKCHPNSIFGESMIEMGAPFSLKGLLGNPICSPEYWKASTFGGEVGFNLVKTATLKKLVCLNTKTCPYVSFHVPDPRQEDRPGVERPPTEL

[8] = system: LPS-induced •NO production in RAW 264.7 cells; test: LPS-induced NO production in RAW 264.7 (Griess); format: cell-based, murine; conditions: Mus musculus, RAW264.7; RAW 264.7, LPS 1 µg/mL; read-out: IC50 (LPS-dependent •NO production)
Experimental: RAW 264.7 cells were cultured in 96-well plates (35,000 cells/well) for 24 h and then pre-treated with different concentrations of each compound. After 2 h, LPS was added (final concentration 1 µg/mL) and the plates were incubated at 37 °C, in a humidified atmosphere of 5% CO2. After 22 h, 75 µL of cell supernatant was transferred to a 96-well plate and mixed with 75 µL of Griess reagent (1% sulfanilamide and 0.1% naphthylethylenediamine dihydrochloride in 2% H3PO4). The plate was incubated at room temperature for 10 min in the dark and then the absorbance was read at 540 nm using a microplate reader (Multiskan Thermo Fisher Scientific Oy, Vantaa, Finland).

[9] = system: RAW 264.7 cells; test: MTT cell viability, RAW 264.7 macrophages; format: cell-based, murine; conditions: for cytotoxic effect on RAW 264.7 viability: up to 100 µM, 24 h
Experimental: as §1, §2

[10] = target: T4, 20S proteasome isolated from erythrocytes (Homo sapiens, UniProt P28074); test: 20S proteasome inhibition (chymotrypsin-like activity); format: biochemical; set-up: purified 20S proteasome isolated from erythrocytes (Enzo Life Sciences); purchased Enzo Life Sciences; host or cells: erythrocytes; conditions: 100 µM
Experimental: Proteasome activity was measured by adapting a method described by Silva et al.. The substrate used to study chymotrypsin-like enzyme activity was Suc-Leu-Leu-Val-Tyr-AMC and the enzyme used was purified 20S proteasome isolated from erythrocytes (Enzo Life Sciences). […] The plate was incubated at 37 °C in the dark for 2 h. […] Lactacystin was used as positive control.

[11] = target: T3, COX-1; test: COX fluorescent inhibitor screening assay, COX-1; format: biochemical
Experimental: (§3) The assay was performed using the COX fluorescent inhibitor screening assay kit (Cayman chemical, MI, USA), with some modifications. […] After 5 min of incubation at room temperature, 5 µL of 10-acetyl-3,7-dihydroxyphenoxazine (ADHP) and 20 µL of a solution containing arachidonic acid (0.5 mM) and KOH (2.5 mM) were added to each well.

[12] = target: T2, COX-2; test: COX fluorescent inhibitor screening assay, COX-2; format: biochemical
Experimental: as §3

[13] = MTT cell viability, MRC-5 cells; format: cell-based; conditions: human, MRC-5 cells (human foetal lung fibroblasts)
Experimental: as §1, §2

[14] = Solubility in enzymatic assay buffer; format: physicochemical
[15] = target: T4, 20S proteasome isolated from erythrocytes; conditions: reported in literature; cited from earlier work

| Compound | IC50 [3] | toxicity towards AGS cells [4] | LOX inhibition at single concentration [3] | cytotoxic effect on RAW 264.7 viability [9] | other results |
| --- | --- | --- | --- | --- | --- |
| COC(=O)C(=Cc1ccccc1)NC(=O)C(CC(=O)O)NC(=O)C(C)c1ccc2cc(OC)ccc2c1 [Compound 2, Npx-L-Asp-Z-ΔPhe-OMe] | 67.4 µM | slightly cytotoxic |  |  | inhibition of LPS-induced production of •NO [1]: modest ability to inhibit; LOX inhibition at single concentration [2]: significantly inhibit the LOX enzyme to a similar level to naproxen; also recorded: high levels of lipoxygenase (LOX) inhibition; cytotoxic effect on RAW 264.7 viability [5]: did not show any statistically significant cytotoxic effects; COX inhibition level (COX-2) [6]: modest levels of COX inhibition; COX inhibition level (COX-1) [7]: modest levels of COX inhibition |
| COc1ccc2cc(C(C)C(=O)NC(Cc3c[nH]c4ccccc34)C(=O)NC(=Cc3ccccc3)C(=O)O)ccc2c1 [Compound 3, Npx-L-Trp-Z-ΔPhe-OH] | 55.9 µM | slightly cytotoxic | significantly inhibit the LOX enzyme to a similar level to naproxen | did not show any statistically significant cytotoxic effects | IC50 [8]: 64.7 µM; remaining activity at 100 µM ([10]; read-out: 20S proteasome enzyme activity remaining): 52% |
| COc1ccc2cc(C(C)C(=O)NC(C)C(=O)NC(=Cc3ccccc3)C(=O)O)ccc2c1 [Compound 4, Npx-L-Ala-Z-ΔPhe-OH] | 55.7 µM | not toxic | significantly inhibit the LOX enzyme to a similar level to naproxen | did not show any statistically significant cytotoxic effects | inhibition at 25 µM [11]: 9%; inhibition at 25 µM [12]: 66% |
| COc1ccc2cc(C(C)C(=O)NC(CCCCN)C(=O)NC(=Cc3ccccc3)C(=O)O)ccc2c1 [Compound 5, Npx-L-Lys-Z-ΔPhe-OH] |  | slightly cytotoxic | not able to inhibit LOX activity | small cytotoxic effect | viability at 24 h, 100 µM [13]: ~79% |
| COc1ccc2cc(C(C)C(=O)NC(CCSC)C(=O)NC(=Cc3ccccc3)C(=O)O)ccc2c1 [Compound 6, Npx-L-Met-Z-ΔPhe-OH] | 60.3 µM | not toxic | significantly inhibit the LOX enzyme to a similar level to naproxen | did not show any statistically significant cytotoxic effects |  |
| COC(=O)C(=Cc1ccccc1)NC(=O)C(Cc1ccc(O)cc1)NC(=O)C(C)c1ccc2cc(OC)ccc2c1 [Compound 7, Npx-L-Tyr-Z-ΔPhe-OMe] |  |  |  |  | IC50 ([4]; Homo sapiens, AGS): 10.9 µM; viability at 24 h, 100 µM [13]: ~87%; IC50 ([9]; Mus musculus, RAW264.7, 24 h): 23.1 µM; 20S proteasome inhibition [10]: not able to inhibit the 20S proteasome; solubility in COX assay medium ([14]; Tris-HCl pH 8.0): insoluble in the assay medium; solubility in LOX assay buffer solution ([14]; phosphate buffer pH 9.0): insolubility in the assay buffer solution |
| CC=C(NC(=O)C(Cc1c[nH]c2ccccc12)NC(=O)C(C)c1ccc2cc(OC)ccc2c1)C(=O)O [Compound 8, Npx-L-Trp-Z-ΔAbu-OH] | 48.9 µM | not toxic | significantly inhibit the LOX enzyme to a similar level to naproxen | did not show any statistically significant cytotoxic effects | IC50 [8]: 84.4 µM |
| COc1ccc2cc([C@H](C)C(=O)O)ccc2c1 [Naproxen, reference compound] |  |  |  |  | inhibition at 25 µM [11]: 42.3%; proteasome inhibition [15]: not be an inhibitor of proteasome; inhibition at 25 µM [12]: 61.5% |
